# Assay results taken from patent publication US20070218002A1, “Method for Detecting Alzheimer's Disease and other Forms of Dementia, and Measuring Their Progression” (priority 2004, published 2007).
# Where “and” joins values, the source holds several entries; their conditions need not be identical. Identical values can stand only once.
# Experiments:
# glucose metabolism = assay: [F-18]FDG PET, relative standardized uptake value; format: in vivo, human; details: normalized to motor cortex
# Procedure: (§1) All scans were performed with ECAT HR or ECAT HR+ scanners (Siemens-CTI, Knoxville, Tenn.). The subjects were in the supine position with the imaging plane parallel to the orbito-meatal line and with their eyes open and ears unoccluded. A 20 min transmission scan was performed to correct PET data for radiation attenuation. 320-550 MBq of a PET tracer was injected as a bolus injection via the in-dwelling venous catheter, and the consecutive dynamic head PET scans were performed for 1 hour with [F-18]FDG or for 2 hours with [F-18]MPPF or with [F-18]FDDNP.
# (§2) All PET scans were decay corrected and reconstructed using filtered-back projection (Hann filter, 5 mm FWHM) with scatter and attenuation correction. The resulting images contained either 47 contiguous slices with 3.4 mm plane-to-pane separation (EXACT HR) or 63 contiguous slices with the plane-to-plane separation of 2.42 mm (EXACT HR+).
# The dynamic [F-18]FDG PET images were summed (frames 30-60min) and the resulting image was used for the following analysis: ROIs were drawn bilaterally on transaxially oriented images on the gray matter signal in the frontal lobe, parietal lobe, lateral temporal lobe, and medial temporal lobe. In addition, one ROI was drawn on the posterior cingulated gyrus. ROIs were also drawn bilaterally on the motor cortex as a reference region. Values for each ROI were extracted and relative standardized uptake values were calculated for each region separately. The average of both ROIs from the same region was divided by the average of ROI values for the motor cortex. In a similar way, the ROI value for the posterior cingulated gyrus was normalized by the average value for motor cortex. Finally the global [F-18]FDG SUVR index was calculated for the parietal, medial temporal, and lateral temporal lobes.
# [1] = molecular target: T1, serotonin 5-HT1A receptors (Homo sapiens, UniProt P08908); assay: [F-18]MPPF PET, Logan plot quantitation of binding potential; format: in vivo
# T1 construct: from tissue; host or cells: living human brain (in vivo PET; hippocampus, raphe nuclei, cortical regions)
# T1 sequence (P08908 1-422): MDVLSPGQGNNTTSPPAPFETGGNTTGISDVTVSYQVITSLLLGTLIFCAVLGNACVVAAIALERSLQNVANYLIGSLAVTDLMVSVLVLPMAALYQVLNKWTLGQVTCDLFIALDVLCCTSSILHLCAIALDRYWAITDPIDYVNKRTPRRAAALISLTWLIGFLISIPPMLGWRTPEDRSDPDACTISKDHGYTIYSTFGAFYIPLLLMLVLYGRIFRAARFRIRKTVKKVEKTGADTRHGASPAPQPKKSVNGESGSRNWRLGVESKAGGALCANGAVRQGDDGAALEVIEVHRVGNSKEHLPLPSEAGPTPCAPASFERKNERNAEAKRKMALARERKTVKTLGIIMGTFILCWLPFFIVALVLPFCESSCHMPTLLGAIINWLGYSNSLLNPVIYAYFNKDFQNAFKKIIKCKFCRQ
# Procedure: as §1, §2
# Anatomical brain magnetic resonance scans were obtained using either a 1.5 Tesla magnet (General Electric-Signa, Milwaukee, Wis.) or a 3 Tesla magnet (General Electric-Signa) scanner. […] A double echo, fast spin echo series using a 24-cm field of view and 256×256 matrix with 3 mm/0 gap (TR=6000 [3T] and 2000 [1.5T]; TE=17/85 [3T] and 30/90 [1.5T]) An inter-modality image co-registration program (7) that uses image segmentation and simulation as preprocessing procedures was used to co-register PET and anatomical MRI images of each subject. Rules for ROI drawing were based on the identification of gyral and sulcal landmarks with respect to the atlas of Talairach and Tournoux (8).
# Quantitation of [F-18]MPPF binding was performed using Logan plot graphical analysis, using the cerebellum, an area largely devoid of 5-HT1A receptors, as the reference region (9). […] Tracer binding potential (BP=Bmax/Kd) parametric images were analyzed using ROIs drawn bilaterally on hippocampus, lateral temporal lobe, parietal lobe, frontal lobe, and posterior cingulate cortex, and a single ROI on the dorsal raphe nucleus using MRI as a guide. Total binding potentials (BPT, BPT=BP×volume) were determined for left and right hippocampus by multiplying the hippocampal BP values with the hippocampus volumes on co-registered MRI.
# 5-HT1A receptors = molecular target: T2, 5-HT1A receptors (Homo sapiens, UniProt P08908); assay: In vitro [F-18]MPPF digital autoradiography on whole-hemisphere brain cryosections; format: binding
# T2 construct: Glass mounted whole-hemisphere brain cryosections (100 μm thick), cut at the level of hippocampus; from tissue; host or cells: post-mortem human brain, whole-hemisphere cryosections at the level of the hippocampus
# T2 sequence (P08908 1-422): T1 sequence (P08908 1-422)
# [2] = AD subjects compared to control subjects
structure (smiles),measurement,setting,value
"OC[C@H]1OC(O)[C@H]([18F])[C@@H](O)[C@@H]1O (stereo partly drawn) [[F-18]FDG, 2-deoxy-2-[F-18]fluoro-D-glucose]","FDG mean SUVR ± 1 SD, Frontal Lobe",glucose metabolism; AD group,0.79 ± 0.07
same,"FDG mean SUVR ± 1 SD, Global",glucose metabolism; AD group,0.66 ± 0.04
same,"FDG mean SUVR ± 1 SD, Lateral Temporal Lobe",glucose metabolism; AD group,0.66 ± 0.07
same,"FDG mean SUVR ± 1 SD, Medial Temporal Lobe",glucose metabolism; AD group,0.66 ± 0.04
same,"FDG mean SUVR ± 1 SD, Parietal Lobe",glucose metabolism; AD group,0.67 ± 0.09
same,"FDG mean SUVR ± 1 SD, Posterior Cingulate Gyrus",glucose metabolism; AD group,0.79 ± 0.11
same,"FDG mean SUVR ± 1 SD, Frontal Lobe",glucose metabolism; CTRL group,0.95 ± 0.08
same,"FDG mean SUVR ± 1 SD, Global",glucose metabolism; CTRL group,0.80 ± 0.04
same,"FDG mean SUVR ± 1 SD, Lateral Temporal Lobe",glucose metabolism; CTRL group,0.86 ± 0.06
same,"FDG mean SUVR ± 1 SD, Medial Temporal Lobe",glucose metabolism; CTRL group,0.73 ± 0.02
same,"FDG mean SUVR ± 1 SD, Parietal Lobe",glucose metabolism; CTRL group,0.89 ± 0.06
same,"FDG mean SUVR ± 1 SD, Posterior Cingulate Gyrus",glucose metabolism; CTRL group,1.05±0.09
same,"FDG mean SUVR ± 1 SD, Posterior Cingulate Gyrus","glucose metabolism; CTRL group, listed as FDG",1.05 ± 0.09
same,"FDG mean SUVR ± 1 SD, Frontal Lobe",glucose metabolism; MCI group,0.90 ± 0.02
same,"FDG mean SUVR ± 1 SD, Global",glucose metabolism; MCI group,0.77 ± 0.04
same,"FDG mean SUVR ± 1 SD, Lateral Temporal Lobe",glucose metabolism; MCI group,0.81 ± 0.05
same,"FDG mean SUVR ± 1 SD, Medial Temporal Lobe",glucose metabolism; MCI group,0.69 ± 0.03
same,"FDG mean SUVR ± 1 SD, Parietal Lobe",glucose metabolism; MCI group,0.84 ± 0.05
same,"FDG mean SUVR ± 1 SD, Posterior Cingulate Gyrus",glucose metabolism; MCI group,0.89±0.06
same,"FDG mean SUVR ± 1 SD, Posterior Cingulate Gyrus","glucose metabolism; MCI group, listed as FDG",0.89 ± 0.06
"COc1ccccc1N1CCN(CCN(C(=O)c2ccc([18F])cc2)c2ccccn2)CC1 [[F-18]MPPF, 4-[F-18]fluoro-N-{2-[1-(2-methoxyphenyl)-piperazinyl]ethyl}-N-(2-pyridinyl)benzamide]",hippocampus total binding potential (BPT=BP×volume),[1]; AD,2.24±0.61
same,"[F-18]MPPF mean BP ± 1 SD, Frontal Lobe",[1]; AD group,0.41 ± 0.13
same,"[F-18]MPPF mean BP ± 1 SD, Lateral Temporal Lobe",[1]; AD group,0.73 ± 0.16
same,"[F-18]MPPF mean BP ± 1 SD, Parietal Lobe",[1]; AD group,0.48 ± 0.13
same,"[F-18]MPPF mean BP ± 1 SD, Posterior Cingulate Gyrus",[1]; AD group,0.56 ± 0.20
same,MPPF accumulation in the hippocampi,[1]; AD patients in general,≤ 50%
same,drop in dorsal raphe nucleus BP values,[1]; [2],41%
same,drop in hippocampus BP values,[1]; [2],27%
same,hippocampus BPT lower compared with controls,[1]; ADs,49%
same,"[F-18]MPPF mean BP ± 1 SD, Frontal Lobe",[1]; Control group,0.49 ± 0.15
same,"[F-18]MPPF mean BP ± 1 SD, Hippocampus",[1]; Control group,1.62±0.07
same,"[F-18]MPPF mean BP ± 1 SD, Lateral Temporal Lobe",[1]; Control group,0.82 ± 0.17
same,"[F-18]MPPF mean BP ± 1 SD, Parietal Lobe",[1]; Control group,0.63 ± 0.15
same,"[F-18]MPPF mean BP ± 1 SD, Posterior Cingulate Gyrus",[1]; Control group,0.68 ± 0.06
same,"[F-18]MPPF mean BP ± 1 SD, Raphe Nuclei",[1]; Control group,0.63±0.09
same,hippocampus total binding potential (BPT=BP×volume),[1]; MCI,3.14±0.34
same,"[F-18]MPPF mean BP ± 1 SD, Frontal Lobe",[1]; MCI group,0.44 ± 0.12
same,"[F-18]MPPF mean BP ± 1 SD, Lateral Temporal Lobe",[1]; MCI group,0.80 ± 0.11
same,"[F-18]MPPF mean BP ± 1 SD, Parietal Lobe",[1]; MCI group,0.43 ± 0.11
same,"[F-18]MPPF mean BP ± 1 SD, Posterior Cingulate Gyrus",[1]; MCI group,0.56 ± 0.12
same,"[F-18]MPPF mean BP ± 1 SD, Raphe Nuclei",[1]; MCI group,0.52 ± 0.11
same,mean hippocampus BP value lower than in controls,[1]; MCI subjects,13%
same,hippocampus BPT lower compared with controls,[1]; MCIs,24%
same,hippocampus total binding potential (BPT=BP×volume),[1]; controls,4.40±0.22
same,"binding ratio (BR), outer layers of gray matter in the inferior temporal gyrus",5-HT1A receptors; AD cases (individual),1.13 and 1.16
same,"hippocampal binding ratio (BR), CA1 field/subiculum relative to inner layer of inferior temporal gyrus gray matter",5-HT1A receptors; AD samples (individual),1.03 and 1.18
same,"drop in in vitro binding, hippocampus",5-HT1A receptors; AD vs control samples,60-70%
same,"hippocampal binding ratio (BR), CA1 field/subiculum relative to inner layer of inferior temporal gyrus gray matter",5-HT1A receptors; control samples (individual),3.29 and 3.00 and 2.98
same,"binding ratio (BR), outer layers of gray matter in the inferior temporal gyrus",5-HT1A receptors; non-demented cases (individual),1.46 and 1.40 and 2.01
